Laboratory results: ChEMBL document CHEMBL3400000, “The discovery of potent agonists for GPR88, an orphan GPCR, for the potential treatment of CNS disorders” (Bioorg Med Chem Lett, 2015)

Target: G protein-coupled receptor 88 (Homo sapiens, UniProt Q9GZN0)
Assay: Agonist activity at GPR88 (unknown origin) transfected into cells assessed as cAMP accumulation by HTRF assay
Type: functional

G protein-coupled receptor 88, sequence (Q9GZN0 whole entry): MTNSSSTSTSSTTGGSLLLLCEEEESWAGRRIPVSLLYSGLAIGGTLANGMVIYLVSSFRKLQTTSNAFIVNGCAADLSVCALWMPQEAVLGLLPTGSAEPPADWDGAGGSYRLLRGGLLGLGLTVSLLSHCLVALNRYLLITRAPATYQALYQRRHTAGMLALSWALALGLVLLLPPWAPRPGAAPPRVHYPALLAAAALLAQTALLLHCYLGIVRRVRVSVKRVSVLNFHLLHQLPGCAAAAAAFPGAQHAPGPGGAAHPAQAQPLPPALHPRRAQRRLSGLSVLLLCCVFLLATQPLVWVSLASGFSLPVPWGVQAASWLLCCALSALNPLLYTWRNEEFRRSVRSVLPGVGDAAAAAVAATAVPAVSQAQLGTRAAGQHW

## CC[C@H](C)[C@H](N)CN(C(=O)[C@@H]1C[C@H]1c1cccc(C#N)c1)c1ccc(-c2ccccc2)cc1
  EC50: 1600 nM

## CC[C@H](C)[C@H](N)CN(C(=O)[C@@H]1C[C@H]1c1ccccc1)c1ccc(-c2ccc(CNC)cc2)cc1
  EC50: 6400 nM

## O=C([C@@H]1C[C@H]1c1ccccc1)N(CC1CCCNC1)c1ccc(-c2ccccc2)cc1 (some centres undefined)
  EC50: 10 nM

## CC[C@H](C)[C@H](N)CN(C(=O)[C@@H]1C[C@H]1c1ccccc1)c1ccc(-c2ccc(C(F)(F)F)cc2)cc1
  EC50: 340 nM

## CCCc1ccc(-c2ccc(N(C[C@@H](N)[C@@H](C)CC)C(=O)[C@@H]3C[C@H]3c3ccccc3)cc2)cc1
  EC50: 61 nM

## CC[C@H](C)[C@H](N)CN(C(=O)[C@@H]1C[C@H]1c1ccccc1)c1ccc(-c2ccc(CCC(=O)OC)cc2)cc1
  EC50: 110 nM

## CC(C)CCNCCN(C(=O)[C@@H]1C[C@H]1c1ccccc1)c1ccc(-c2ccccc2)cc1
  EC50: 5.1 nM

## CC(C)[C@H](N)CN(C(=O)[C@@H]1C[C@H]1c1ccccc1)c1ccc(-c2ccccc2)cc1
  EC50: 1.1 nM

## CC(C)C[C@H](N)CN(C(=O)[C@@H]1C[C@H]1c1ccccc1)c1ccc(-c2ccsc2)cc1
  EC50: 1200 nM

## N[C@@H](CC1CCCCC1)CN(C(=O)[C@@H]1C[C@H]1c1ccccc1)c1ccc(-c2ccccc2)cc1
  EC50: 1.7 nM

## COc1cccc(-c2ccc(N(C[C@@H](N)CC(C)C)C(=O)[C@@H]3C[C@H]3c3ccccc3)cc2)c1
  EC50: 1100 nM

## CC[C@H](C)[C@H](N)CN(C(=O)[C@@H]1C[C@H]1c1ccc(F)cc1F)c1ccc(-c2ccccc2)cc1
  EC50: 1300 nM

## CC[C@H](C)[C@H](N)CN(C(=O)[C@@H]1C[C@H]1c1ccccc1F)c1ccc(-c2ccccc2)cc1
  EC50: 650 nM

## CC(C)C[C@@H](N)CN(C(=O)[C@@H]1C[C@H]1c1ccccc1)c1ccc(-c2ccccc2)cc1
  EC50: 1.8 nM

## CC(C)C[C@H](N)CN(C(=O)[C@@H]1C[C@H]1c1ccccc1)c1ccc(-c2ccccc2)cc1 (racemic)
  EC50: 880 nM

## CCC(C)CNCCN(C(=O)[C@@H]1C[C@H]1c1ccccc1)c1ccc(-c2ccccc2)cc1 (some centres undefined)
  EC50: 4.7 nM

## CC(C)C[C@H](N)CN(C(=O)[C@@H]1C[C@H]1c1ccccc1)c1ccc(C2=CCCCCC2)cc1
  EC50: 2100 nM

## COc1ccccc1-c1ccc(N(C[C@@H](N)CC(C)C)C(=O)[C@@H]2C[C@H]2c2ccccc2)cc1
  EC50: 3200 nM

## CC[C@H](C)[C@H](N)CN(C(=O)[C@@H]1C[C@H]1c1ccccn1)c1ccc(-c2ccc(OC(C)C)cc2)cc1
  EC50: 3.5 nM

## CC[C@H](C)[C@H](N)CN(C(=O)[C@@H]1C[C@H]1c1cccc(Cl)c1)c1ccc(-c2ccccc2)cc1
  EC50: 2200 nM

## CC[C@H](C)[C@H](N)CN(C(=O)[C@@H]1C[C@H]1c1ncccn1)c1ccc(-c2ccccc2)cc1
  EC50: 130 nM

## CC(C)C[C@H](N)CN(C(=O)[C@@H]1C[C@H]1c1ccccc1)c1ccc(C2=CCCC2)cc1
  EC50: 1200 nM

## CC(C)C[C@H](N)CN(C(=O)[C@@H]1C[C@H]1c1ccccc1)c1ccc(-c2cccc(F)c2)cc1
  EC50: 2100 nM

## Cc1cccc(-c2ccc(N(C[C@@H](N)CC(C)C)C(=O)[C@@H]3C[C@H]3c3ccccc3)cc2)c1
  EC50: 1200 nM

## CC(C)(N)CN(C(=O)[C@@H]1C[C@H]1c1ccccc1)c1ccc(-c2ccccc2)cc1
  EC50: 1.4 nM

## CC(C)C[C@H](N)CN(C(=O)[C@@H]1C[C@H]1c1ccccc1)c1ccc(-c2ccccc2Cl)cc1
  EC50: 3800 nM

## O=C([C@@H]1C[C@H]1c1ccccc1)N(CCNCC1CCCC1)c1ccc(-c2ccccc2)cc1
  EC50: 2.5 nM

## CCOC(=O)c1ccc(-c2ccc(N(C[C@@H](N)[C@@H](C)CC)C(=O)[C@@H]3C[C@H]3c3ccccc3)cc2)cc1
  EC50: 260 nM

## CC[C@H](C)[C@H](N)CN(C(=O)[C@@H]1C[C@H]1c1ccccc1)c1ccc(-c2ccc(CC(=O)OC)cc2)cc1
  EC50: 66 nM

## CC[C@H](C)[C@H](N)CN(C(=O)[C@@H]1C[C@H]1c1ccccc1)c1ccc(-c2ccc(NS(C)(=O)=O)cc2)cc1
  EC50: 1200 nM

## CC[C@H](C)[C@H](N)CN(C(=O)[C@@H]1C[C@H]1c1ccccc1)c1ccc(-c2ccc(Oc3ccccc3)cc2)cc1
  EC50: 94 nM

## CO[C@H](C)[C@H](N)CN(C(=O)[C@@H]1C[C@H]1c1ccccc1)c1ccc(-c2ccccc2)cc1
  EC50: 0.68 nM

## CC[C@H](C)[C@H](N)CN(C(=O)[C@@H]1C[C@H]1c1nc(C)c(C)s1)c1ccc(-c2ccccc2)cc1
  EC50: 3600 nM

## CC[C@H](C)[C@H](N)CN(C(=O)[C@@H]1C[C@H]1c1ccc(C#N)cc1)c1ccc(-c2ccccc2)cc1
  EC50: > 25000 nM

## CC(C)C[C@H](N)CN(C(=O)[C@@H]1C[C@H]1c1ccccc1)c1ccc(-c2ccncc2)cc1
  EC50: 13000 nM

## CC(C)C[C@H](N)CN(C(=O)[C@@H]1C[C@H]1c1ccccc1)c1ccc(-c2ccc(F)cc2)cc1
  EC50: 900 nM

## CC[C@H](C)[C@@H](CN(C(=O)[C@@H]1C[C@H]1c1ccccc1)c1ccc(-c2ccccc2)cc1)NC(C)=O
  EC50: 5.8 nM

## CC(C)C[C@H](N)CCN(C(=O)[C@@H]1C[C@H]1c1ccccc1)c1ccc(-c2ccccc2)cc1
  EC50: 3 nM

## N[C@H](CN(C(=O)[C@@H]1C[C@H]1c1ccccc1)c1ccc(-c2ccccc2)cc1)C1CCCCC1
  EC50: 0.66 nM

## CC[C@H](C)[C@H](N)CN(C(=O)[C@@H]1C[C@H]1c1cc(F)cc(F)c1)c1ccc(-c2ccccc2)cc1
  EC50: 960 nM

## CC[C@H](C)[C@H](N)CN(C(=O)[C@@H]1C[C@H]1c1cccs1)c1ccc(-c2ccccc2)cc1
  EC50: 360 nM

## CC[C@H](C)[C@H](N)CN(C(=O)[C@@H]1C[C@H]1c1ccccc1)c1ccc(-c2ccc(COC(C)(C)C)cc2)cc1
  EC50: 280 nM

## CC[C@H](C)[C@H](N)CN(C(=O)[C@@H]1C[C@H]1c1cccc(F)c1)c1ccc(-c2ccccc2)cc1
  EC50: 560 nM

## CC[C@H](C)[C@H](N)CN(C(=O)[C@@H]1C[C@H]1c1ccoc1)c1ccc(-c2ccccc2)cc1
  EC50: 580 nM

## N[C@H](CN(C(=O)[C@@H]1C[C@H]1c1ccccc1)c1ccc(-c2ccccc2)cc1)c1ccccc1
  EC50: 4.7 nM

## CC(C)C[C@H](N)CN(C(=O)[C@@H]1C[C@H]1c1ccccc1)c1ccc(-c2ccoc2)cc1
  EC50: 2000 nM

## CC[C@H](C)[C@H](N)CN(C(=O)[C@@H]1C[C@H]1c1ccccc1)c1ccc(-c2ccc(OC)cc2)cc1
  EC50: 120 nM

## COc1ccc(-c2ccc(N(C[C@@H](N)CC(C)C)C(=O)[C@@H]3C[C@H]3c3ccccc3)cc2)cc1
  EC50: 330 nM

## CC[C@H](C)[C@H](N)CN(C(=O)[C@@H]1C[C@H]1c1ccc(OC)cc1)c1ccc(-c2ccccc2)cc1
  EC50: > 25000 nM

## CC[C@H](C)[C@H](N)CN(C(=O)[C@@H]1C[C@H]1c1ccncc1)c1ccc(-c2ccccc2)cc1
  EC50: 1500 nM

## CC(C)C[C@H](N)CN(C(=O)[C@@H]1C[C@H]1c1ccccc1)c1ccc(-c2cccs2)cc1
  EC50: 1500 nM

## CC[C@H](C)[C@H](N)CN(C(=O)[C@H]1C[C@@H]1c1ccccn1)c1ccc(-c2ccc(COC)cc2)cc1
  EC50: 1200 nM

## CC[C@H](C)[C@H](N)CN(C(=O)[C@@H]1C[C@H]1c1ccccn1)c1ccc(-c2ccc(COC)cc2)cc1
  EC50: 15 nM

## CC[C@H](C)[C@H](N)CN(C(=O)[C@@H]1C[C@H]1c1ccccc1Cl)c1ccc(-c2ccccc2)cc1
  EC50: > 25000 nM

## CC(C)C[C@H](N)CN(C(=O)[C@@H]1C[C@H]1c1ccccc1)c1ccc(-c2ccc(Cl)cc2)cc1
  EC50: 640 nM

## CC(C)C[C@H](N)CN(C(=O)[C@@H]1C[C@H]1c1ccccc1)c1ccc(C2=CCCCC2)cc1
  EC50: 1200 nM

## CC(C)C[C@H](N)CN(C(=O)[C@@H]1C[C@H]1c1ccccc1)c1ccc(-c2cccnc2)cc1
  EC50: 10000 nM

## CC[C@H](C)[C@H](N)CN(C(=O)[C@@H]1C[C@H]1c1ccccc1)c1ccc(-c2ccc(CN(C)C)cc2)cc1
  EC50: 460 nM

## CC[C@H](C)[C@H](N)CN(C(=O)[C@@H]1C[C@H]1c1cccc(C)c1)c1ccc(-c2ccccc2)cc1
  EC50: 1200 nM

## CC[C@H](C)[C@H](N)CN(C(=O)[C@@H]1C[C@H]1c1ccccc1)c1ccc(-c2ccccc2)cc1 (racemic)
  EC50: 800 nM

## CC[C@H](C)[C@H](N)CN(C(=O)[C@@H]1C[C@H]1c1cccnc1)c1ccc(-c2ccccc2)cc1
  EC50: 1500 nM

## CC(C)C[C@H](N)CN(C(=O)C(C)Cc1ccccc1)c1ccc(-c2ccccc2)cc1 (some centres undefined)
  EC50: 1.2 nM

## CC(C)C[C@H](N)CN(C(=O)[C@@H]1C[C@H]1c1ccccc1)c1cccc(-c2ccccc2)c1
  EC50: 23000 nM

## CC[C@H](C)[C@H](N)CN(C(=O)[C@@H]1C[C@H]1c1ccc(F)c(F)c1)c1ccc(-c2ccccc2)cc1
  EC50: 720 nM

## Cc1ccccc1-c1ccc(N(C[C@@H](N)CC(C)C)C(=O)[C@@H]2C[C@H]2c2ccccc2)cc1
  EC50: 3400 nM

## CC(C)CCCN(C(=O)[C@@H]1C[C@H]1c1ccccc1)c1ccc(-c2ccccc2)cc1
  EC50: > 100 nM

## CC[C@H](C)[C@H](N)CN(C(=O)[C@@H]1C[C@H]1c1c(F)cccc1F)c1ccc(-c2ccccc2)cc1
  EC50: 11000 nM

## CC[C@H](C)[C@H](N)CN(C(=O)[C@@H]1C[C@H]1c1ccccc1)c1ccc(-c2ccc(C(C)(C)C)cc2)cc1
  EC50: 750 nM

## CC[C@H](C)[C@H](N)CN(C(=O)[C@@H]1C[C@H]1c1cncnc1)c1ccc(-c2ccccc2)cc1
  EC50: 19000 nM

## CC[C@H](C)[C@H](N)CN(C(=O)[C@@H]1C[C@H]1c1ccccc1)c1ccc(-c2ccc(COC)cc2)cc1
  EC50: 35 nM

## CC(C)C[C@H](N)CN(C(=O)[C@@H]1C[C@H]1c1ccccc1)c1ccc(-c2ccccc2F)cc1
  EC50: 1600 nM

## CC(C)(C)[C@H](N)CN(C(=O)[C@@H]1C[C@H]1c1ccccc1)c1ccc(-c2ccccc2)cc1
  EC50: 11 nM

## CC[C@H](C)[C@H](N)CN(C(=O)[C@@H]1C[C@H]1c1ccccc1)c1ccc(-c2ccc(CO)cc2)cc1
  EC50: 1100 nM

## CC[C@H](C)[C@H](N)CN(C(=O)[C@@H]1C[C@H]1c1ccccc1)c1ccc(-c2ccc(C(=O)N(C)C)cc2)cc1
  EC50: 980 nM

## CC[C@H](C)[C@H](N)CN(C(=O)[C@@H]1C[C@H]1c1ccccc1)c1ccc(-c2ccc(OC(F)(F)F)cc2)cc1
  EC50: 170 nM

## CC[C@H](C)[C@H](N)CN(C(=O)[C@@H]1C[C@H]1c1ccccc1)c1ccc(-c2ccccc2)cc1
  EC50: 230 nM

## CC[C@H](C)[C@H](N)CN(C(=O)[C@@H]1C[C@H]1c1ccc(Cl)cc1)c1ccc(-c2ccccc2)cc1
  EC50: 4300 nM

## CC[C@H](C)[C@H](N)CN(C(=O)[C@@H]1C[C@H]1c1ncc(C)s1)c1ccc(-c2ccccc2)cc1
  EC50: 1300 nM

## CC[C@@H](C)[C@H](N)CN(C(=O)[C@@H]1C[C@H]1c1ccccc1)c1ccc(-c2ccccc2)cc1
  EC50: 1.4 nM
